Measurements reported in PubChem BioAssay AID2060354 (Molecular Pharmacology Branch, DTP, NCI, 2025).
“And” between values parts separate entries of the source, which are not always exact repeats. Equal values may be shown once.

System: 519858-162-T-J1-PDC spheroid growth inhibition
Test: Anticancer human tumor 519858-162-T-J1-PDC patient-derived colon adenocarcinoma cell line growth inhibition [TAK]
Conditions: spheroids with HUVEC and MSC; for viability, T/C: stronger effect = lower value
Method in brief: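 Spheroids of 60% malignant cells, 25% HUVEC and 15% hMSC were exposed to targeted agents combined with TAK-243 or ipatasertib. Concentrations started at or near clinical Cmax (10 microM if unknown) and descended in half-log steps.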

[1] = curve of first compound, second compound 0.3 µM
[2] = curve of first compound, second compound 0.949 µM
[3] = curve of first compound, second compound 3 µM
[4] = curve of first compound, second compound 9.49 µM
[5] = curve of first compound, second compound 30 µM
[6] = second compound 0.3 µM, first compound 0.0316 µM
[7] = second compound 0.3 µM, first compound 0.1 µM
[8] = second compound 0.3 µM, first compound 0.316 µM
[9] = second compound 0.3 µM, first compound 1 µM
[10] = second compound 0.949 µM, first compound 0.0316 µM
[11] = second compound 0.949 µM, first compound 0.1 µM
[12] = second compound 0.949 µM, first compound 0.316 µM
[13] = second compound 0.949 µM, first compound 1 µM
[14] = second compound 3 µM, first compound 0.0316 µM
[15] = second compound 3 µM, first compound 0.1 µM
[16] = second compound 3 µM, first compound 0.316 µM
[17] = second compound 3 µM, first compound 1 µM
[18] = second compound 9.49 µM, first compound 0.0316 µM
[19] = second compound 9.49 µM, first compound 0.1 µM
[20] = second compound 9.49 µM, first compound 0.316 µM
[21] = second compound 9.49 µM, first compound 1 µM
[22] = second compound 30 µM, first compound 0.0316 µM
[23] = second compound 30 µM, first compound 0.1 µM
[24] = second compound 30 µM, first compound 0.316 µM
[25] = second compound 30 µM, first compound 1 µM
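Further: each agent tested in combination with TAK-243 or ipatasertib; spheroids exposed to drugs for 7 days.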

In the case of CC(C)CC(NC(=O)C(Cc1ccccc1)NC(=O)c1cnccn1)B(O)O (stereo unspecified), the viability, T/C (compound 31.6 pM) is reported as 90.9% and 107%, the viability, T/C (compound 0.0001 µM) is reported as 97.5% and 90.8% and the viability, T/C (compound 0.000316 µM) is reported as 91% and 116%. The viability, T/C (compound 0.001 µM) was 88.1% and 106%, the viability, T/C (compound 0.00316 µM) was 89.5% and 109% and the viability, T/C (compound 0.01 µM) was 73.2% and 71.1%. The IC50 (curve of compound) was over 0.01 µM.
In the case of COc1c(OCCCN2CCOCC2)ccc2c3n(c(=NC(=O)c4cnc(N)nc4)nc12)CCN3 + CC(C)NCC(C(=O)N1CCN(c2ncnc3c2C(C)CC3O)CC1)c1ccc(Cl)cc1, the IC50 [1] is reported as 0.269 µM, the IC50 [2] is reported as 0.391 µM and the IC50 [3] is reported as over 1 µM. For the same molecule, the IC50 [4] was over 1 µM, the IC50 [5] was 0.276 µM and the viability, T/C (second compound 0.3 µM, first compound 0.00316 µM) was 87.3%. It also gave a viability, T/C (second compound 0.3 µM, first compound 0.01 µM) of 78.4%, a viability, T/C [6] of 65% and a viability, T/C [7] of 57.2%. For the same molecule, the viability, T/C [8] was 49.5%, the viability, T/C [9] was 42.5% and the viability, T/C (second compound 0.949 µM, first compound 0.00316 µM) was 76.6%. The viability, T/C (second compound 0.949 µM, first compound 0.01 µM) was 75.1%, the viability, T/C [10] was 73.8% and the viability, T/C [11] was 62.2%. The viability, T/C [12] was 56.2%, the viability, T/C [13] was 31.9% and the viability, T/C (second compound 3 µM, first compound 0.00316 µM) was 97.7%. It also gave a viability, T/C (second compound 3 µM, first compound 0.01 µM) of 71.4%, a viability, T/C [14] of 68.1% and a viability, T/C [15] of 61.5%. For the same molecule, the viability, T/C [16] was 51%, the viability, T/C [17] was 50.1% and the viability, T/C (second compound 9.49 µM, first compound 0.00316 µM) was 83.5%. The viability, T/C (second compound 9.49 µM, first compound 0.01 µM) was 87.2%, the viability, T/C [18] was 72% and the viability, T/C [19] was 62.1%. It also gave a viability, T/C [20] of 60.5%, a viability, T/C [21] of 56.4% and a viability, T/C (second compound 30 µM, first compound 0.00316 µM) of 93.6%. It also gave a viability, T/C (second compound 30 µM, first compound 0.01 µM) of 77.6%, a viability, T/C [22] of 73.6% and a viability, T/C [23] of 59.1%. It also gave a viability, T/C [24] of 43% and a viability, T/C [25] of 47.8%.
With CC(C)(C)c1nc(-c2cccc(NS(=O)(=O)c3c(F)cccc3F)c2F)c(-c2ccnc(N)n2)s1 + CC(C)NCC(C(=O)N1CCN(c2ncnc3c2C(C)CC3O)CC1)c1ccc(Cl)cc1 the IC50 [1] was over 10 µM, the IC50 [2] was over 10 µM and the IC50 [3] was over 10 µM. It also gave an IC50 [4] of over 10 µM, an IC50 [5] of over 10 µM and a viability, T/C [6] of 112%. The viability, T/C [7] was 128%, the viability, T/C [8] was 115% and the viability, T/C [9] was 130%. The viability, T/C (second compound 0.3 µM, first compound 3.16 µM) was 107%, the viability, T/C (second compound 0.3 µM, first compound 10 µM) was 77.9% and the viability, T/C [10] was 109%. It also gave a viability, T/C [11] of 115%, a viability, T/C [12] of 130% and a viability, T/C [13] of 113%. It also gave a viability, T/C (second compound 0.949 µM, first compound 3.16 µM) of 100%, a viability, T/C (second compound 0.949 µM, first compound 10 µM) of 86.7% and a viability, T/C [14] of 102%. For the same molecule, the viability, T/C [15] was 102%, the viability, T/C [16] was 116% and the viability, T/C [17] was 97.3%. It also gave a viability, T/C (second compound 3 µM, first compound 3.16 µM) of 106%, a viability, T/C (second compound 3 µM, first compound 10 µM) of 61.2% and a viability, T/C [18] of 104%. The viability, T/C [19] was 92.6%, the viability, T/C [20] was 112% and the viability, T/C [21] was 91.6%. For the same molecule, the viability, T/C (second compound 9.49 µM, first compound 3.16 µM) was 84.4%, the viability, T/C (second compound 9.49 µM, first compound 10 µM) was 72.6% and the viability, T/C [22] was 105%. For the same molecule, the viability, T/C [23] was 86.9%, the viability, T/C [24] was 98.1% and the viability, T/C [25] was 82.2%. The viability, T/C (second compound 30 µM, first compound 3.16 µM) was 83.2% and the viability, T/C (second compound 30 µM, first compound 10 µM) was 75.4%.
In the case of CC(C)(C)c1nc(-c2cccc(NS(=O)(=O)c3c(F)cccc3F)c2F)c(-c2ccnc(N)n2)s1, the viability, T/C (compound 0.0316 µM) is reported as 116% and 110%, the viability, T/C (compound 0.1 µM) is reported as 134% and 144% and the viability, T/C (compound 0.316 µM) is reported as 131% and 137%. For the same molecule, the viability, T/C (compound 1 µM) was 132% and 150%, the viability, T/C (compound 3.16 µM) was 99% and 94.1% and the viability, T/C (compound 10 µM) was 53.2% and 71.4%. For the same molecule, the IC50 (curve of compound) was over 10 µM.
In the case of CCCS(=O)(=O)Nc1ccc(F)c(C(=O)c2c[nH]c3ncc(-c4ccc(Cl)cc4)cc23)c1F, the viability, T/C (compound 0.316 µM) is reported as 99.3% and 108%, the viability, T/C (compound 1 µM) is reported as 91.4% and 91.7% and the viability, T/C (compound 3.16 µM) is reported as 105% and 126%. For the same molecule, the viability, T/C (compound 10 µM) was 91.9% and 93%, the viability, T/C (compound 31.6 µM) was 114% and 129% and the viability, T/C (compound 100 µM) was 132% and 140%. For the same molecule, the IC50 (curve of compound) was over 100 µM.
